The results in this text go back to patent publication US6399568B1, “Cyclic tetrapeptide derivatives and medicinal use thereof” (Japan Energy Corporation, priority 1997, dated 2002).

In test [1] the test system is B16/BL6 cells. Briefly: Inhibitory effect on histone deacetylation in cells (AUT gel electrophoresis). In kind it is cell-based, mouse. The settings on record: Example 1 added at 10 μM, trichostatin A at 1 μM; 6 hours; histone H4 bands. The protocol:
In a culture flask of 75 ml in capacity, 1.5×10^5 B16/BL6 cells were inoculated and preliminarily cultured for 4 days. Then, a given amount of a compound to be tested was added and subsequently cultured for 6 hours. Thereafter, cells were striped using 0.25% trypsin enzyme solution, washed once with PBS and stored temporarily at −80° C.
From this cell sample, histone was separated from chromatin and collected together with other proteins in a conventional manner. The resulting protein sample was subjected to AUTgel electrophoresis in an amount of 1 μg/lane. Said gel was stained with silver to detect bands separated by the migration.
The result on a control group in which no compound to be tested was added is also shown.

Test [2] concerns liver cancer MH134 cell line. The test is described as follows: Cell proliferation inhibition (72 hours). The class given is cell-based, mouse. As to conditions: read-out: 50% proliferation inhibiting concentration MH134 (nM) mean. An excerpt:
(§1) In order to verify the action of the cyclic tetrapeptide derivative according to the present invention in inhibiting cell proliferation in cancerized cells, the action on the proliferation of the aforementioned B16/BL6 cells was investigated. The evaluation of cell proliferation rates was done utilizing a commercially available measuring kit, specifically, from Promega under the trade name CellTiter 96 Aqueous Non-Radioactive Proliferation Assay Kit. In the measuring kit, the amount of products through reduction of a reagent tetrazolium compound (3-(4,5-dimethylthiazol-2-yl)-5-(3-carboxymethoxyphenyl)-2-(4-sulfophenyl)-2H-tetrazolium, inner salt; MTS) by viable animal cells is determined by detecting spectrophotometrically the color generated from the products. Since the amount of products is proportional to the amount of viable cells, this kit is utilized to evaluate the amount of viable cells.
(§2) According to the procedure of Test Example 1, B16/BL6 cells are inoculated in a 96 well microplate and cultured for 24 hours. Then, 10 μl of a solution of the source solution of a compound to be tested which has been diluted to a predetermined amount per well is added. Thereafter, culture is continued for additional 48 hours and 20 μl of a reagent solution in the aforementioned CellTiter 96 Aqueous Non-Radioactive Proliferation Assay Kit is then added. After incubation is continued at 37° C. for 1 hour, the amount of color generation is measured as an absorbance at 490 n musing a microplate reader.
(§3) The amount of cell proliferation of a group to which a compound to be tested is added is expressed in a relative value as compared to the standard cell proliferation (100%) in a control group to which no compound to be tested is added. For each compound tested, the amounts of cell proliferation were measured at different concentrations of addition and the dependence of the quantitative cell proliferation on the concentration of addition was investigated. From the results, a concentration of addition at which the amount of cell proliferation was inhibited by 50% relative to the amount of cell proliferation in the control group without addition was determined.
(§4) The test method was in accordance with the above-mentioned procedure, except that the period of incubation after the addition of a compound was 72 hours.
(§5) As illustrative examples, results are shown for an evaluation using mouse malignant melanoma B16/BL6 and B16 cell lines; leukemia L1210 cell line, colon cancer Colon26 cell line, and liver cancer MH134 cell line as cancer cells. For the cell proliferation inhibiting action of each compound tested for these cancer cells, 50% proliferation inhibiting concentrations are shown in Table 4.

Test [3] concerns colon cancer Colon26 cell line. The test is described as follows: Cell proliferation inhibition (72 hours). The class given is cell-based, mouse. As to conditions: read-out: 50% proliferation inhibiting concentration Colon 26 (nM) mean.
From the text: as §1, §2, §3, §4, §5

The subject of another test is leukemia L1210 cell line. Briefly: Cell proliferation inhibition (72 hours). In kind it is cell-based, mouse. As to conditions: read-out: 50% proliferation inhibiting concentration L1210 (nM) mean.
From the text: as §1, §2, §3, §4, §5

The test system of test [4] is B16/BL6 cells. The test is described as follows: MHC class-I molecule expression promoting activity. The class given is cell-based, mouse. The settings on record: for MHC class-I molecule expression promoting action: FIGS. 3 and 4, dependence on concentration of addition; for Twice Promoting Concentration Cx2: concentration at which MHC class-I expression is twice that without addition; for Twice Promoting Concentration Cx2 / conc. for 2-fold expression (nM) mean: 72 hours; for conc. for 2-fold expression (nM) mean: mean of a plurality of assays.
Description: The cancer cells used were mouse melanoma cells, B16/BL6 cells, provided by, the National Cancer Institute, U.S.A. Said cells were cultivated in MEM media supplemented with 10% FBS at 37° C. in the presence of 5% carbon dioxide in an humidified incubator.
A compound to be tested was preliminarily dissolved in dimethyl sulfoxide (DMSO) and adjusted to a concentration of 100 mM or 10 mM (source solution).
Said B16/BL6 cells were inoculated on 96 well microplate at a cell density of 5000 cells per well, each well containing 200 μl of said medium. […] Thereafter, each well was once washed with PBS (phosphate buffered saline) and floating cells and the medium were removed. Then, the well was treated with 0.1% glutaraldehyde solution for 3 minutes to fix the cells.
The amount of MHC class-I molecule expressed on the surface of the fixed cells was measured by the following method. Anti-H-2K^bD^bD^d antibody, which is an antibody against mouse MHC classI molecule (commercially available from Meiji Milk Co., Ltd), was used as a primary antibody, biotinylated anti-mouse IgG+M (commercially available from Chemicon) was used as a secondary antibody, and streptavidin-β-galactosidase conjugate (commercially available from BRL) was reacted as a labelling enzyme. The amount of the thus labelled enzyme β-galactosidase was measured in a microplate reader by recording the fluorescent intensity (excitation: 365 nm, fluorescence: 450 nm) derived from the enzymaticreaction product using 4-methylumbelliferyl-β-D-galactoside (commercially available from Nacalai Tesque) as a substrate. […] The value obtained by subtracting said background level from the, actually measured value (an apparent value including the background level) was the true measurement reflecting the amount of expressed MHC class-I molecule.
A group without the addition of any compound to be tested was used as a reference group and the measurement of MHC class-I molecule expressed in said group was used as a standard value. The amount of MHC class-I molecule expressed at a concentration of addition of each test compound is shown as a relative amount, said standard value taken as one (1). For each compound to be tested, various concentrations of addition were selected to investigate the dependency of MHC class-I molecule expression promoting action on the concentration of addition.

The subject of test [5] is B16/BL6 cells. Briefly: Inhibitory effect on cell proliferation (MTS, 48 hours). In kind it is cell-based, mouse. As to conditions: 48 hours after addition; read-out: 50% inhibiting concentration.
From the text: as §1, §2, §3

The target of test [6] is Mouse histone deacetylase. The class given is biochemical. As for the experimental part:
In an enzyme system using a radio-labelled acetylated histone as a substrate, histone deacetylase enzyme inhibiting activity was evaluated. The basic conditions were in accordance with the method of Yoshida et al. (J. Biol. Chem., 265, 17174-17179, 1990).
Mouse histone deacetylase to be used was partially purified from FM3A cells. Cells were suspended in HDA buffer (15 mM potassium phosphate, 5% glycerol, 0.2 mM EDTA, pH 7.5), homogenized and centrifuged (35000×g, 10 min) to collect the nuclei which in turn were homogenized in the same buffer containing 1 M (NH4)2SO4. After ultrasonic disruption and centrifugation, the concentration of (NH4)2SO4 in the supernatant was increased to 3.5 M to precipitate deacetylase enzyme proteins. This precipitate was redissolved in HDA buffer, dialyzed against HDA buffer, applied to DEAE-cellulose column and eluted in NaCl gradient. Active fractions were used as a histone deacetylase enzyme solution.
As a substrate, [^3H]acetyl histone was used. In a culture solution of FM3A cells in the presence of 5 mM sodium n-butyrate, [^3H]acetate was added, followed by incubation for 30 minutes to radio-label the histone. The histone was prepared in a conventional manner and used as a substrate solution.
An assay was performed by adding a compound to be tested at a given concentration while using a no-addition control group, and by incubating the substrate solution and the enzyme solution at 37° C. for 10 minutes (reaction volume, 100 μl). The enzyme reaction was stopped by adding 10 μl of concentrated hydrochloric acid and the excised [^3H]acetate was extracted with ethyl acetate for radioactivity measurement. The inhibiting activity was expressed by a concentration at which the enzyme activity in the control group was inhibited by 50% (50% inhibiting concentration).

In test [7] the test system is mouse malignant melanoma B16 cell line. The test is described as follows: Cell proliferation inhibition (72 hours). In kind it is cell-based. The settings on record: read-out: 50% proliferation inhibiting concentration B16 (nM) mean.
From the text: as §1, §2, §3, §4, §5

Another test has as its target histone deacetylase. Briefly: Histone deacetylase enzyme inhibiting activity, synthetic peptide substrate. In kind it is biochemical, mouse. The settings on record: enzyme from B16/BL6 cells; [3H]acetylated histone H4 peptide; 37° C. 3 hours. The protocol:
The preparation of histone deacetylase was performed essentially according to the method of Yoshida et al. (J. Biol. Chem., 265,17174-17179, 1990). The enzyme to be used was partially purified from B16/BL6 cells. The cells were suspended in HDA buffer (15 mM potassium phosphate, 5% glycerol, 0.2 mM EDTA, […], pH 7.5), homogenized and centrifuged (2500×g, 10 min) to collect the nuclei, which in turn were homogenized in the same buffer containing 1 M (NH4)2SO4. After ultrasonic disruption and centrifugation, the concentration of (NH4)2SO4 in the collected supernatant was increased to 3.5 M to precipitate histone deacetylase. This precipitate was redissolved in HDA buffer, subjected to gel filtration to replace the solvent with HDA buffer, and used as a crude histone deacetylase enzyme solution.
As a substrate, a synthetic substrate peptide, [^3H]acetylated histone H4 peptide was used. This [^3H]acetylated histone H4 peptide was obtained by synthesizing the N-terminal peptide of histone H4; […] (the C-terminal being cysteine) and radio-acetylating with ^3H -acetic anhydride.
An assay was performed by incubating the synthetic substrate solution and the enzyme solution at 37° C. for 3 hours in the presence of a compound to be tested (reaction volume, 100 μl). The reaction was stopped by adding 25 μl of 1 M HCl and 0.2 M acetic acid and [^3H]acetate excised by the enzyme reaction was extracted with ethyl acetate for radioactivity measurement. As a control group, the same procedure was repeated without addition of any test compound to the reaction system. The inhibiting activity was expressed by a concentration at which the histone deacetylase enzyme activity in the control group was inhibited by 50% (50% inhibiting concentration).

Test [8] has as its system mouse malignant melanoma B16/BL6 cell line. In kind it is cell-based. As to conditions: 72 hours; read-out: 50% proliferation inhibiting concentration B16/BL6 (nM) mean.
From the text: as §1
According to the procedure of Test Example 1, B16/BL6 cells are inoculated in a 96 well microplate and cultured for 24 hours. […] Thereafter, culture is continued for additional 48 hours and 20 μl of a reagent solution in the aforementioned CellTiter 96 Aqueous Non-Radioactive Proliferation Assay Kit is then added. After incubation is continued at 37° C. for 1 hour, the amount of color generation is measured as an absorbance at 490 n musing a microplate reader.
The amount of cell proliferation of a group to which a compound to be tested is added is expressed in a relative value as compared to the standard cell proliferation (100%) in a control group to which no compound to be tested is added. For each compound tested, the amounts of cell proliferation were measured at different concentrations of addition and the dependence of the quantitative cell proliferation on the concentration of addition was investigated.
as §4

Non-standard residues stand in square brackets, D forms with d. Residues, ends and D or L forms follow the SMILES beside them. ξ: configuration not given here. *: point of attachment. Asu = N[C@@H](CCCCCC(=O)O)C(=O)O; ξPip = O=C(O)C1CCCCN1; Aib = CC(C)(N)C(=O)O; NHOH = ON*

`O=C(CCCCC[C@@H]1NC(=O)[C@H]2CCCN2C(=O)[C@H](Cc2ccccc2)NC(=O)[C@H](Cc2ccccc2)NC1=O)NO` [HDA-5, cyclo(-Asu(NHOH)-Phe-Phe-D-Pro-)] (cyclo([Asu](NHOH)FF[dP])): the “inhibitory effect on histone deacetylation” value in the test on B16/BL6 cells [1] is “inhibits the deacetylation of histone”. The IC50 was found to be 1660 nM in test [2]; 2160 nM in test [3]; 500 nM in the test on leukemia L1210 cell line; 210 nM with B16/BL6 cells [5]; 2.18 nM in test [6]; 3370 nM in test [7]. In addition, the IC50 came to 6.03 nM at histone deacetylase and 257 nM in [8]. For the same compound, in the test with B16/BL6 cells [4], the “MHC class-I molecule expression promoting action” value was “exhibited MHC class-I molecule expression promoting action”. In addition, the “Twice Promoting Concentration Cx2” value in the test with B16/BL6 cells [4] stood at 135 nM. The “conc. for 2-fold expression (nM) mean” value in the test on B16/BL6 cells [4] came to 98.2 nM.

Consider `CC(C)C[C@@H]1NC(=O)[C@@H](Cc2ccccc2)NC(=O)[C@H](CCCCCC(=O)NO)NC(=O)C2CCCCN2C1=O` (stereo partly drawn) [HDA-12, cyclo(-Asu(NHOH)-D-Phe-Leu-Pip-)] (cyclo([Asu](NHOH)[dF]L[ξPip])), for which the IC50 amounted to 112 nM in test [2]; 149 nM in test [3]; 28.3 nM in the test with leukemia L1210 cell line; 12.3 nM in the test with B16/BL6 cells [5]; 262 nM in test [7]; 9.44 nM in test [8]. Besides, the “MHC class-I molecule expression promoting action” value in the test with B16/BL6 cells [4] is reported as “exhibited MHC class-I molecule expression promoting action”. Moreover, the “Twice Promoting Concentration Cx2” value in the test on B16/BL6 cells [4] came to 3.86 nM. Also, the “conc. for 2-fold expression (nM) mean” value in the test with B16/BL6 cells [4] was 2.75 nM.

Turning to `CC1(C)NC(=O)[C@H](CCCCCC(=O)NO)NC(=O)[C@H]2CCCN2C(=O)[C@H](Cc2ccccc2)NC1=O` [HDA-15, cyclo(-Asu(NHOH)-Aib-Phe-D-Pro-)] (cyclo([Aib]F[dP][Asu](NHOH))), the IC50 was 946 nM in [2]; 908 nM in test [3]; 193 nM in the test on leukemia L1210 cell line; 92.5 nM in the test on B16/BL6 cells [5]; 1230 nM in test [7]; 110 nM in [8]. The “MHC class-I molecule expression promoting action” value in the test on B16/BL6 cells [4] is reported as “exhibited MHC class-I molecule expression promoting action”. Further, the “Twice Promoting Concentration Cx2” value in the test on B16/BL6 cells [4] is given as 36.2 nM. Also, the “conc. for 2-fold expression (nM) mean” value in the test with B16/BL6 cells [4] was 33.2 nM.

For the compound `CC(/C=C/C(=O)NO)=C\[C@@H](C)C(=O)c1ccc(N(C)C)cc1` [Trichostatin A, trichostatin A, reference compound], the “inhibitory effect on histone deacetylation” value in the test with B16/BL6 cells [1] is on record as “a total of 5 discrete bands are clearly seen in this region”. In addition, the IC50 is 41.7 nM in [2]; 139 nM in test [3]; 12.4 nM with leukemia L1210 cell line; 14.3 nM in the test on B16/BL6 cells [5]; 621 nM in test [7]; 2.55 nM on histone deacetylase. Further, in test [8], the IC50 was 19.1 nM. The “MHC class-I molecule expression promoting action” value with B16/BL6 cells [4] is “MHC class-I molecule expression promoting action was confirmed”. For the same compound, the “MHC class-I molecule expression promoting activity” value with B16/BL6 cells [4] (allowed to act on animal cells (summary statement)) is on record as “promotes the expression of MHC class-I molecule”. In addition, in the test with B16/BL6 cells [4], the “Twice Promoting Concentration Cx2” value was 3.35 nM.
